Three molecules from US10342837B2, “Extracts and compositions of helichrysum odoratissimum for preventing and treating skin cancers” (University of Pretoria, priority 2013, dated 2019) can be followed below.

Common to all, as to type: cell-based
Series [1] is described as follows: Cell viability of U937 cells in cytokine production test. Particulars: human. On the procedure: (§1) The levels of cytokine production (IL-8 and IL-12) from cell supernatants were measured by enzyme-linked immunosorbent assay (ELISA) according to the manufacturer's protocol (BD Biosciences, San Diego, Calif., USA). The levels of IL-12 were determined as it was reported to act as a potential anti-tumour agent (Brunda et al. 1993). IL-8 was measured as it plays a major role in the progression of various cancer cells by invasion, migration, adhesion, proliferation (Kuai et al. 2012). Briefly U937 cells were plated at a concentration of 2.5×10^5 cell per well in a 24-well plate. The cells were incubated for 24 h with 0.1 μg/ml PMA at 37° C. and 5% CO2 to allow the monocytes to differentiate into macrophages. The cells were treated with various concentrations of H. odoratissimum extracts. Controls included 20 μg/ml pentoxifylline, 5 μg/ml phytohemagglutinin (PHA), as well as vehicle-treated control cells (1% DMSO) and a medium only control. […]
(§2) H. odoratissimum was analyzed at 20 μg/ml, 15 μg/ml, 10 μg/ml and 5 μg/ml to determine whether the extract was able to induce the production of IL-12 and inhibit the production of IL-8 in phytohemagglutinin (PHA) stimulated U937 cells, the results of which are depicted in Table 2.

The subject of series [2] is IL-12. Kind of series: IL-12 production in U937 cells (ELISA). The conditions noted are these: for production of IL-12 of the controls compared to the medium control (in words): PHA at 5 μg/ml, pentoxifylline at 20 μg/ml. On the procedure:
The levels of cytokine production (IL-8 and IL-12) from cell supernatants were measured by enzyme-linked immunosorbent assay (ELISA) according to the manufacturer's protocol (BD Biosciences, San Diego, Calif., USA). The levels of IL-12 were determined as it was reported to act as a potential anti-tumour agent (Brunda et al. 1993). IL-8 was measured as it plays a major role in the progression of various cancer cells by invasion, migration, adhesion, proliferation (Kuai et al. 2012). Briefly U937 cells were plated at a concentration of 2.5×10^5 cell per well in a 24-well plate. The cells were incubated for 24 h with 0.1 μg/ml PMA at 37° C. and 5% CO2 to allow the monocytes to differentiate into macrophages. The cells were treated with various concentrations of H. odoratissimum extracts. Controls included 20 μg/ml pentoxifylline, 5 μg/ml phytohemagglutinin (PHA), as well as vehicle-treated control cells (1% DMSO) and a medium only control. The cells were incubated for a further 20 hrs and thereafter centrifuged at 980 rpm for 5 min to collect the cell free supernatant and analyse the concentration of IL-8 and IL-12.
as §2
On the technique in general: ELISA stands for enzyme-linked immunosorbent assay.

Series [3] in a line: Cytotoxicity on U937 cells. Particulars: human. The source says:
(§3) The cytotoxicity of the H. odoratissimum extract was first analyzed on the U937 cells to determine IC50 values at which the extract could be tested when evaluating the cytokine profile and to ensure that the concentrations of phytohemagglutinin (PHA) and pentoxifylline, used to determine the cytokine profile, was not toxic to the U937 cells.

The test system of series [4] is IL-8. Nature of the series: IL-8 production in U937 cells (ELISA). On the procedure:
as §1, §2

The test system of series [5] is A431 cells. Kind of series: Light microscopy, haematoxylin and eosin staining of A431 cells (apoptosis). The conditions noted are these: 0.025 μg/ml, 72 h exposure. As to the method:
The specific concentrations of extract were chosen due to the anti-proliferative activity that was observed. Exponentially growing cells were seeded at 100,000 cell per well in 6-well plates on heat-sterilized coverslips. After 24 h incubation at 37° C. and 5% […] for cell adherence, cells were exposed to 15 μg/ml, 30 μg/ml and 7.5 μg/ml of H. odoratissimum extract including vehicle-treated control cells (2% DMSO); cells propagate in growth medium, as well as 0.025 μg/ml Actinomycin D and incubated for 72 h at 37° C. Cells were then fixed in Bouin's fixative for 30 min and stained by standard haematoxylin and eosin staining procedures (Stander et al. 2009).
The influence of H. odoratissimum was compared to a medium control, vehicle-treated control and Actinomycin D (FIG. 3).

In series [6] the test system is U937 cells. Kind of series: Cell viability of U937 cells in cytokine production test. Particulars: sample at 5 μg/ml; U937 cells. On the procedure: as §1, §2
The test system of series [7] is U937 cells. Nature of the series: Cytotoxicity on U937 cells. The conditions noted are these: U937 cells.
Source text: as §3

Converted amounts (≈) assume the structure as drawn. Numbered stars: 1 amine (or outer) side, 2 acyl side, 3 side chain; on linkers, the order of the positions; unused ones are H or OH. Bridge positions count the residues as written; N and C are the ends. Square brackets hold non-standard residues; d marks the D form. Peptide text beside a SMILES is read from it. I, II: the chains in the order shown. Actinocin(9to1) = Cc1c2oc3c(C)ccc(C(=O)[*:1])c3nc-2c(C(=O)[*:2])c(N)c1=O; NMeV = CN[C@H](C(=O)O)C(C)C; Sar = CNCC(=O)O

In the case of `CC(=O)CCCCn1c(=O)c2c(ncn2C)n(C)c1=O` [Pentoxifylline, pentoxifylline], in series [1], the viability at 20 h, 20 μg/ml turned out to be 106%. For the same molecule, in series [2], the “production of IL-12 of the controls compared to the medium control (in words)” value was “inhibition”. In series [2] (sample at 20 μg/ml), the “IL-12” value stood at 1.37 ± 0.9 pg/mL. Also, in series [3], half-maximal inhibition (IC50) required 170 ± 6.4 µg/mL (≈ 611 µM). The “IL-8” value in series [4] (sample at 20 μg/ml) came to 51.2 ± 7.2 pg/mL.
As for `Cc1c2oc3c(C)ccc(C(=O)N[C@@H]4C(=O)N[C@H](C(C)C)C(=O)N5CCC[C@H]5C(=O)N(C)CC(=O)N(C)[C@@H](C(C)C)C(=O)O[C@@H]4C)c3nc-2c(C(=O)N[C@@H]2C(=O)N[C@H](C(C)C)C(=O)N3CCC[C@H]3C(=O)N(C)CC(=O)N(C)[C@@H](C(C)C)C(=O)O[C@@H]2C)c(N)c1=O` [Actinomycin D] (I: T[dV]P[Sar][NMeV] / II: T[dV]P[Sar][NMeV]; ester I:1-I:C, II:1-II:C; linker I:N-II:N via Actinocin(9to1)), the “A431 cell morphology (in words)” value in series [5] was “a great amount of cell death and total loss of cell viability”.
For phytohemagglutinin [PHA], the “Cell viability in %” value in series [6] is listed as 101% ± 0.3. Further, in series [2], the “production of IL-12 of the controls compared to the medium control (in words)” value is “increase in IL-12”. Besides, the “IL-12” value in series [2] (sample at 5 μg/ml) was determined as 9.49 ± 3.8 pg/mL. Further, in series [7], the “IC50 (in μg/ml), cytotoxicity on U937 cells” value came out at 318 ± 7.8 µg/mL. Besides, the “IL-8” value in series [4] (sample at 5 μg/ml) is 107 ± 5.6 pg/mL.

In general, viability refers to a read-out of living cells in per cent, often relative to untreated cells. The IC50 is the point on the concentration scale where inhibition reaches its midpoint. Read a high IC50 as weaker potency in that assay.
